Experimental data from ChEMBL document CHEMBL5528042, “Identification of Novel, Selective Ataxia-Telangiectasia Mutated Kinase Inhibitors with the Ability to Penetrate the Blood-Brain Barrier: The Discovery of AZD1390” (J Med Chem, 2024).
Values after ≈ are worked out from the molar mass of the structure shown.

How the values were obtained:
[1] = Dissociation constant, pKa of compound; type: physicochemical
[2] = Intrinsic clearance in rat hepatocyte assessed per 10^6 cells; type: ADME, cell-based; details: hepatocytes, read-out: CLH
[3] = molecular target: Serine/threonine-protein kinase ATR (Homo sapiens, UniProt Q13535); assay: Inhibition of ATR in human HT-29 cells incubated for 2 hrs by Alexa Fluor 488/Hoeschst staining based plate reader assay; type: cell-based
[4] = Lipophilicity, logD of the compound at pH 7.4; type: physicochemical; details: buffer
[5] = Intrinsic clearance in human hepatocyte assessed per 10^6 cells; type: ADME, cell-based; details: hepatocytes, read-out: CLH
[6] = Aqueous solubility of the compound in pH 7.4; type: physicochemical; details: buffer
[7] = Apparent permeability across apical to basolateral side in dog MDCKII-MDR1 cells overexpressing BCRP at 0.1 uM incubated for 90 mins by LC-MS/MS analysis; type: ADME, cell-based, Canis lupus familiaris, MDCK-MDR1
[8] = Apparent permeability across apical to basolateral side in dog MDCKII-MDR1 cells overexpressing BCRP at 1 uM incubated for 90 mins by LC-MS/MS analysis; type: ADME, cell-based, Canis lupus familiaris, MDCK-MDR1
[9] = test system: MDR1, BCRP; assay: Efflux ratio of apparent permeability across basolateral to apical side over apical to basolateral side in dog MDCKII-MDR1 cells overexpressing BCRP at 1 uM incubated for 90 mins by LC-MS/MS analysis; type: ADME, cell-based, Canis lupus familiaris, MDCK-MDR1
[10] = test system: MDR1, BCRP; assay: Efflux ratio of apparent permeability across basolateral to apical side over apical to basolateral side in dog MDCKII-MDR1 cells overexpressing BCRP at 0.1 uM incubated for 90 mins by LC-MS/MS analysis; type: ADME, cell-based, Canis lupus familiaris, MDCK-MDR1
[11] = Bioavailability in rat at 1 mg/kg,po or 0.5 mg/kg,iv administration measured for 24 hrs by LC-MS/MS analysis; type: ADME, organism-based; details: in vivo
[12] = Plasma protein binding in rat assessed as unbound fraction incubated for 16 hrs by equilibrium dialysis based UPLC-MS/MS analysis; type: ADME, cell-free
[13] = Plasma protein binding in human assessed as unbound fraction incubated for 16 hrs by equilibrium dialysis based UPLC-MS/MS analysis; type: ADME, cell-free
[14] = Plasma protein binding in dog assessed as unbound fraction incubated for 16 hrs by equilibrium dialysis based UPLC-MS/MS analysis; type: ADME, cell-free, Canis lupus familiaris
[15] = molecular target: Serine/threonine-protein kinase mTOR (Homo sapiens, UniProt P42345); assay: Inhibition of mTOR in human MDA-MB-468 cells incubated for 2.5 hrs by Alexa Fluor 488 staining based fluorescence analysis; type: cell-based
[16] = Half life in rat at 1 mg/kg,po or 0.5 mg/kg,iv administration measured for 24 hrs by LC-MS/MS analysis; type: ADME, organism-based; details: in vivo
[17] = molecular target: Phosphatidylinositol 4,5-bisphosphate 3-kinase catalytic subunit alpha isoform (Homo sapiens, UniProt P42336); assay: Inhibition of PI3Kalpha in human BT-474 cells incubated for 140 mins by ELISA; type: cell-based
[18] = Volume of distribution at steady state in rat at 1 mg/kg,po or 0.5 mg/kg,iv administration measured for 24 hrs by LC-MS/MS analysis; type: ADME, organism-based; details: in vivo
[19] = molecular target: DNA-dependent protein kinase catalytic subunit (Homo sapiens, UniProt P78527); assay: Inhibition of DNA-PK (unknown origin)
[20] = molecular target: Serine-protein kinase ATM (Homo sapiens, UniProt Q13315); assay: Inhibition of ATM in human HT-29 cells incubated for 2 hrs by Alexa Fluor 488/Hoeschst staining based plate reader assay; type: cell-based
[21] = Bioavailability in dog at 2 mg/kg,po or 1 mg/kg,iv administration measured for 24 hrs by LC-MS/MS analysis; type: ADME, organism-based, Canis lupus familiaris; details: in vivo
[22] = Volume of distribution at steady state in dog at 2 mg/kg,po or 1 mg/kg,iv administration measured for 24 hrs by LC-MS/MS analysis; type: ADME, organism-based, Canis lupus familiaris; details: in vivo
[23] = Half life in dog at 2 mg/kg,po or 1 mg/kg,iv administration measured for 24 hrs by LC-MS/MS analysis; type: ADME, organism-based, Canis lupus familiaris; details: in vivo
[24] = Tmax in Cynomolgus monkey at iv administered as bolus injection measured at 4 to 90 mins by gamma counter analysis; type: ADME, organism-based, Macaca fascicularis; details: in vivo, time 4-90 min

Sequence of Serine/threonine-protein kinase ATR (Q13535 whole entry): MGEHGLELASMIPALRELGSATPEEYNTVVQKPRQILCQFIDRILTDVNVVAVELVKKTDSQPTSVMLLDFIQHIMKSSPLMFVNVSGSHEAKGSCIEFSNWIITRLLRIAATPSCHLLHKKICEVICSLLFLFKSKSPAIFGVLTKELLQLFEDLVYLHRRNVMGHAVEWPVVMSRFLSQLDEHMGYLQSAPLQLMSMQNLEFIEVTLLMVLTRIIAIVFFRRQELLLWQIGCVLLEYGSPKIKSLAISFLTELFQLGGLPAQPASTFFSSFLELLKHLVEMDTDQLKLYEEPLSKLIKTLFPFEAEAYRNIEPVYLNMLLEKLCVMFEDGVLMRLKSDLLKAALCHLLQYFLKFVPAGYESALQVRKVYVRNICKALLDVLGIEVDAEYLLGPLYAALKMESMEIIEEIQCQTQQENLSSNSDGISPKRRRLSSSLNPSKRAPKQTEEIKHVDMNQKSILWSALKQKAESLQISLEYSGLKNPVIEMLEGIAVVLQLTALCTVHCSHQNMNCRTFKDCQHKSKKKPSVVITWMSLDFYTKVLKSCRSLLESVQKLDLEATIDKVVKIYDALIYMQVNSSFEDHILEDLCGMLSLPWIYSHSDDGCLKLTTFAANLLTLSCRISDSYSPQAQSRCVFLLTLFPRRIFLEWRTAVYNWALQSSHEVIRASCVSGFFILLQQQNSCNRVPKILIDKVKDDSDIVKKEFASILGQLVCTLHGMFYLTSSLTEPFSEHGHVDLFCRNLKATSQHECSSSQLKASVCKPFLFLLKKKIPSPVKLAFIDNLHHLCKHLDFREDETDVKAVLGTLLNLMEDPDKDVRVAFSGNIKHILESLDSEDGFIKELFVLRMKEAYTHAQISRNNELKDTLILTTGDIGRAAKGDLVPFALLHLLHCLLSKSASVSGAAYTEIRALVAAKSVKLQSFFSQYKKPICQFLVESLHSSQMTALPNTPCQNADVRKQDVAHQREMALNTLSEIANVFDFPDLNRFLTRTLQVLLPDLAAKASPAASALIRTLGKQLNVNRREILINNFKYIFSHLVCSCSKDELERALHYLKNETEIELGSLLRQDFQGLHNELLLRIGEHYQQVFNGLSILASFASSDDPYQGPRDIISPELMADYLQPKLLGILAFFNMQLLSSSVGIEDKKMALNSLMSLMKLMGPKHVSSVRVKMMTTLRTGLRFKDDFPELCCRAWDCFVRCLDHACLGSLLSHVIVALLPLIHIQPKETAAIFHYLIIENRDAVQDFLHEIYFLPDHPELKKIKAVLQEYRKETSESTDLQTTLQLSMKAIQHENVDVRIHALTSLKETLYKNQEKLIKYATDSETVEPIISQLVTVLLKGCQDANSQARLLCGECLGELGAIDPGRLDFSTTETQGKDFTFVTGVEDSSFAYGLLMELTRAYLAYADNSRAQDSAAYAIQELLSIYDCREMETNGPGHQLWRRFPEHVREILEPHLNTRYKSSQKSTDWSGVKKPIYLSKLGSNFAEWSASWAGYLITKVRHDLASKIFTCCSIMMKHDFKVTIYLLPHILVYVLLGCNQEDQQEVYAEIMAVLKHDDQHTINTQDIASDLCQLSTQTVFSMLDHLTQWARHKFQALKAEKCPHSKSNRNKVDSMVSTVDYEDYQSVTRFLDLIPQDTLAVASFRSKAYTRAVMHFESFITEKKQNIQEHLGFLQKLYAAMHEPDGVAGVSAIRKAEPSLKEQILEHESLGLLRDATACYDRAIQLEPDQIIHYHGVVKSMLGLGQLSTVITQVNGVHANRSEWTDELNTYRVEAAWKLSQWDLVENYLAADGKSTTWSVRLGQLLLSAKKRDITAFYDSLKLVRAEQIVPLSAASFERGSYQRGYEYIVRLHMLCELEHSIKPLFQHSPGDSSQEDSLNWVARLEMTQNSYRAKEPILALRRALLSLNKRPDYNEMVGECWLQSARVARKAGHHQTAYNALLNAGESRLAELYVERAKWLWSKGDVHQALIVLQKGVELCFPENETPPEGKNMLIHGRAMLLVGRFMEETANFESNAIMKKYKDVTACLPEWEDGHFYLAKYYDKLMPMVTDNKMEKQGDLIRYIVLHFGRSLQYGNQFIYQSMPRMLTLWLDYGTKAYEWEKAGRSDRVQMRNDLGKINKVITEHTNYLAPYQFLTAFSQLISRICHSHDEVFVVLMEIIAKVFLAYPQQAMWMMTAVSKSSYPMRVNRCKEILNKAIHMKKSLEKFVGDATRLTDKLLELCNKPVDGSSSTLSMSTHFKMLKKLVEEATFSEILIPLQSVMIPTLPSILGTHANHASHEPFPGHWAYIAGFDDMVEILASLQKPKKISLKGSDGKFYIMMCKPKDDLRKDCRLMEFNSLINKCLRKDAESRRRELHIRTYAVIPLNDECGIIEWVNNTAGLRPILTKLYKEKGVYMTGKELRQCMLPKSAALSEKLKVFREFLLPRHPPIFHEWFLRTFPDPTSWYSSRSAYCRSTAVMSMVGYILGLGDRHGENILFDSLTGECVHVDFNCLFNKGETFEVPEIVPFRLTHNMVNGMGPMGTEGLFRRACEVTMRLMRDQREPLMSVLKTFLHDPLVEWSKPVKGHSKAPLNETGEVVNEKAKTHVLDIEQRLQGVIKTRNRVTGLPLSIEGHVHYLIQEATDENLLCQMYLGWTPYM
Sequence of Phosphatidylinositol 4,5-bisphosphate 3-kinase catalytic subunit alpha isoform (P42336 whole entry, canonical isoform): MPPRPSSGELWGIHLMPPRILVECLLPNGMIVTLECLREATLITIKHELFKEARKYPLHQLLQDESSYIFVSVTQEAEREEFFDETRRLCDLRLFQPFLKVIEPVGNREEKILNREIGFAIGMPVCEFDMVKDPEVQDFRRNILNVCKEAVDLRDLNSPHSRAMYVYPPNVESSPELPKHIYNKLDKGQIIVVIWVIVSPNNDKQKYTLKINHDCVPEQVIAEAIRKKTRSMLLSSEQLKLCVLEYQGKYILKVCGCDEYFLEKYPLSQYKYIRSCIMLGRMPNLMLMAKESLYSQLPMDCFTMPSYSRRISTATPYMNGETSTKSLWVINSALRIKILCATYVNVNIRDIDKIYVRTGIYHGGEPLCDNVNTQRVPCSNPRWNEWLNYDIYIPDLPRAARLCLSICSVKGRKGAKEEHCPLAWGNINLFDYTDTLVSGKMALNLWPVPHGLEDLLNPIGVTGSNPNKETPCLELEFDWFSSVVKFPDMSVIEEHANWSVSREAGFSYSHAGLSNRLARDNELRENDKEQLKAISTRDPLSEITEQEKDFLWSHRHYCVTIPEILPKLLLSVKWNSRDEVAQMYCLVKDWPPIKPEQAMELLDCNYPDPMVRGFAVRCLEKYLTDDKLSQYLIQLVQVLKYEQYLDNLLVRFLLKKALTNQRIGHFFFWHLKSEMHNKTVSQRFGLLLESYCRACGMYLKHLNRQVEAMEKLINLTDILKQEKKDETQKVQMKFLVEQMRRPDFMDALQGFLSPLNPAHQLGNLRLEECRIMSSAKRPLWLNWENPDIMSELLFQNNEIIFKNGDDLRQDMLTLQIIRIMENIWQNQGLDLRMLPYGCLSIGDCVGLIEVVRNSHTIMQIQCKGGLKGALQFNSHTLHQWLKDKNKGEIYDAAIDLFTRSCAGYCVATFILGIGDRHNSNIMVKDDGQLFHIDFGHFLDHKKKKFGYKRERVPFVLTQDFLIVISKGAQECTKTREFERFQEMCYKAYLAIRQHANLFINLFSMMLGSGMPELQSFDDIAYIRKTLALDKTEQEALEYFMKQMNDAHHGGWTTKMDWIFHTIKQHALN

Compound | hepatocyte CLint [2] [µL/min/1e6 cells] | IC50 [3] [µM] | logD [4] | hepatocyte CLint [5] [µL/min/1e6 cells] | solubility [6] [µM] | Papp A→B at […], 0.1 µM [7] [×10⁻⁶ cm/s] | Papp A→B at […], 1 µM [8] [×10⁻⁶ cm/s] | further results
CC(C)n1c(=O)n(C)c2cnc3cc(F)c(-c4ccc(N5CCN(C)CC5)nc4)cc3c21 | 22 | > 31.6 | 3.2 | 6.5 | 17 (≈ 7.39 µg/mL) | 17 | 19 | pKa [1]: 7.8
CC(C)n1c(=O)n(C)c2cnc3ccc(-c4ccc(OCCCN5CCCCC5)nc4)cc3c21 | 5.8 | – | 2.6 | 2.4 | 826 (≈ 380 µg/mL) | – | 25 | –
CC(C)n1c(=O)n(C)c2cnc3ccc(-c4ccc(OCCCN(C)C)nc4)cc3c21 | 14 | > 20 | 1.9 | 5.2 | 480 (≈ 201 µg/mL) | 13 | 21 | efflux ratio at […], 1 µM [9]: 2.1; efflux ratio at […], 0.1 µM [10]: 6.3
CO[C@H]1CC[C@H](n2c(=O)n(C)c3cnc4ccc(-c5ccc(OCCCN(C)C)cc5)cc4c32)C1 | 8.7 | – | 2.7 | 8.7 | 604 (≈ 287 µg/mL) | 9.7 | 18 | –
COCc1ccc(-c2ccc3ncc4c(c3c2)n([C@H]2C[C@@H](CO)C2)c(=O)n4C)cn1 | 20 | – | 2 | 3.5 | 990 (≈ 400 µg/mL) | – | 3.2 | –
COCc1ccc(-c2ccc3ncc4c(c3c2)n([C@@H]2CC[C@@H](OC)C2)c(=O)n4C)cn1 (relative stereo) | 40 | – | 3 | 5.3 | 789 (≈ 330 µg/mL) | 37 | 24 | –
Cn1c(=O)n(C2CCOCC2)c2c3cc(-c4ccc(OCCCN5CCCCC5)cc4)ccc3ncc21 | 5.3 | > 15.8 | 2.5 | 2.9 | 88 (≈ 44.1 µg/mL) | 7.5 | 13 | –
CC(C)n1c(=O)n(C)c2cnc3ccc(-c4ccc(OCCCCN(C)C)nc4)cc3c21 | 19 | > 15.8 | 1.9 | 2.1 | 39 (≈ 16.9 µg/mL) | 5 | – | –
CO[C@H]1C[C@H](n2c(=O)n(C)c3cnc4ccc(-c5ccc(OCCCN6CCCCC6)nc5)cc4c32)C1 | 6.6 | – | 2.4 | 2.6 | > 1000 | 17 | – | bioavailability [11]: 19%; fraction unbound at 16 h [12]: 0.04; fraction unbound at 16 h [13]: 0.19; fraction unbound at 16 h [14]: 0.22; IC50 [15]: > 1.26 µM; half-life [16]: 4 h; IC50 [17]: 2 µM; Vdss [18]: 2.4 L/kg
CC(C)n1c(=O)n(C)c2cnc3ccc(-c4ccc(N5CC[C@H](N(C)C)C5)nc4)cc3c21 | 25 | – | 3 | 3.8 | 137 (≈ 59 µg/mL) | – | 22 | –
CC(C)n1c(=O)n(C)c2cnc3ccc(-c4ccc(OCCCN(C)C)cc4)cc3c21 | 46 | > 31.6 | 2.7 | 18 | 323 (≈ 135 µg/mL) | – | 24 | –
COCc1ccc(-c2ccc3ncc4c(c3c2)n(C2CCOCC2)c(=O)n4C)cn1 | – | > 12.6 | 2.3 | < 3 | 19 (≈ 7.68 µg/mL) | – | – | –
CC(C)n1c(=O)n(C)c2cnc3cc(F)c(-c4ccc(OCCCN5CCCCC5)nc4)cc3c21 [AZD-1390] | – | > 31.6 | – | – | 693 (≈ 331 µg/mL) | 17 | 24 | bioavailability [11]: 74%; IC50 [19]: > 31.6 µM; fraction unbound at 16 h [12]: 0.04; fraction unbound at 16 h [13]: 0.26; fraction unbound at 16 h [14]: 0.25; IC50 [15]: > 15.8 µM; IC50 [20]: 0.000794 µM; bioavailability [21]: 66%; Vdss [22]: 24 L/kg; IC50 [17]: > 12.6 µM; Vdss [18]: 3 L/kg
CC(C)n1c(=O)n(C)c2cnc3ccc(-c4ccc(N5CC(N(C)C)C5)nc4)cc3c21 | 44 | – | 3 | 4.8 | 10 (≈ 4.17 µg/mL) | 18 | 32 | pKa [1]: 7.1
CC(C)n1c(=O)n(C)c2cnc3ccc(-c4ccc(OC[C@@H]5CCN(C)C5)nc4)cc3c21 | 15 | > 31.6 | 1.7 | 5.7 | > 1000 | 15 | 23 | –
CC(C)n1c(=O)n(C)c2cnc3ccc(-c4ccc(O[C@H]5CCN(C)C5)nc4)cc3c21 | 15 | – | 2.4 | 6.2 | > 1000 | – | 27 | –
CC(C)n1c(=O)n(C)c2cnc3cc(F)c(-c4ccc(OCCCN(C)C)nc4)cc3c21 | 13 | > 31.6 | 2.1 | 6.7 | 680 (≈ 298 µg/mL) | 23 | 56 | bioavailability [11]: 48%; IC50 [19]: > 31.6 µM; fraction unbound at 16 h [12]: 0.17; fraction unbound at 16 h [13]: 0.32; fraction unbound at 16 h [14]: 0.42; IC50 [15]: > 31.6 µM; half-life [23]: 6.4 h; half-life [16]: 3.2 h; bioavailability [21]: 31%; Vdss [22]: 18 L/kg; IC50 [17]: 15.8 µM; Vdss [18]: 4.1 L/kg
CN(C)CCCOc1ccc(-c2ccc3ncc4c(c3c2)n(C2CCOCC2)c(=O)n4[11CH3])cn1 | – | – | – | – | – | – | – | Tmax [24]: 0.333 h
COCc1ccc(-c2ccc3ncc4c(c3c2)n([C@H]2CCCOC2)c(=O)n4C)cn1 | 28 | – | 2.5 | 3.2 | 125 (≈ 50.6 µg/mL) | 35 | 27 | –
CN(C)CCCOc1ccc(-c2ccc3ncc4c(c3c2)n(C2CCOCC2)c(=O)n4C)cn1 | – | – | – | – | – | – | – | pKa [1]: 9.4; bioavailability [11]: 57%; bioavailability [21]: 54%; Vdss [22]: 18 L/kg; Vdss [18]: 4.3 L/kg
CN(C)CCCOc1ccc(-c2ccc3ncc4c(c3c2)n([C@@H]2CCCOC2)c(=O)n4C)cc1 | 8.1 | > 31.6 | 2.4 | 7.9 | 851 (≈ 392 µg/mL) | 9.7 | 22 | –
COCc1ccc(-c2ccc3ncc4c(c3c2)n(C(C)C)c(=O)n4C)cn1 | 9 | – | 2.7 | 34 | 42 (≈ 15.2 µg/mL) | 39 | – | –
CC(C)n1c(=O)n(C)c2cnc3ccc(-c4ccc(N5CC6(CN(C)C6)C5)nc4)cc3c21 | 2.4 | > 31.6 | 1.7 | < 1 | 928 (≈ 398 µg/mL) | – | 6 | –
COCc1ccc(-c2ccc3ncc4c(c3c2)n([C@@H]2CCOCC2(C)C)c(=O)n4C)cn1 | 12 | – | 2.7 | < 1 | 521 (≈ 225 µg/mL) | 39 | – | bioavailability [11]: 39%; IC50 [19]: 1.58 µM; fraction unbound at 16 h [12]: 0.14; fraction unbound at 16 h [13]: 0.08; fraction unbound at 16 h [14]: 0.23; IC50 [15]: 0.501 µM; half-life [23]: 3.3 h; half-life [16]: 1.1 h; bioavailability [21]: 9%; Vdss [22]: 3.7 L/kg; IC50 [17]: > 5.01 µM; Vdss [18]: 1.9 L/kg
CC(C)n1c(=O)n(C)c2cnc3ccc(-c4ccc(OCCN(C)C)nc4)cc3c21 | 24 | > 25.1 | 2.1 | 6.1 | 421 (≈ 171 µg/mL) | – | 52 | –
CC(C)n1c(=O)n(C)c2cnc3cc(F)c(-c4ccc(N5CCC(N(C)C)CC5)nc4)cc3c21 | 6.3 | > 31.6 | 2.4 | 2.4 | 787 (≈ 364 µg/mL) | 9.4 | 22 | pKa [1]: 9.1
